Converted amounts (≈) assume the structure as drawn. Like-named read-outs stand apart in the source and are kept apart here.
Legend:
M. mycetomatis strain I1 = assay: IC50 and MIC determination, CellTiter-Glo, strain I1; assay type: cell-based, Madurella mycetomatis
M. mycetomatis strain P1 = assay: IC50 and MIC determination, CellTiter-Glo, strain P1; assay type: cell-based, Madurella mycetomatis
[1] = tested on: healthy uninfected G. mellonella larvae
Method: (§1) For in vivo experiments, sixth-week instar G. mellonella larvae were purchased from Blue-Lagoon, Maassluis, The Netherlands. The larvae were raised and kept in the dark at room temperature. Larvae without any discoloration and weighing around 500 mg were selected for experiments.
To determine the toxicity, 15 healthy uninfected larvae were injected with 20 µL of 20 µM compound as previously described.[16] […] As a control, a separate group of larvae were injected with 20 µL of PBS. Larvae were housed in Petri dishes with Whatman paper at 37°C in the dark. Survival was monitored for 10 days.

M. mycetomatis [2] = assay: In vitro susceptibility, averages over M. mycetomatis isolates (average metabolic activity at 2 µM, mean MIC); assay type: cell-based; conditions: Madurella mycetomatis, 96 h, 4 days at 37°C, CellTiter-Glo, average of 3 isolates, 20% or below = inhibition
Method: M. mycetomatis isolate MM55 was used to screen the Oncode library. This strain was kindly provided by Prof. […] The three M. mycetomatis isolates were identified by ITS sequencing and maintained at −80°C at Erasmus MC. Prior to in vitro screening, isolates were cultured on Sabouraud agar plates (BD, Erembodegem, Belgium) at 37°C.
The Oncode Drug Repurposing library was based on the drug repurposing library from the Drug Repurposing Hub of the Broad Institute and recreated by the Oncode institute.[13] […] Each well of the 384-well plates contained 0.6 µL of a 200 µM stock concentration of compound, resulting in a final concentration of 2 µM when the fungus was added. […] Furthermore, this concentration could also be reached in the G. mellonella larvae.[8],[11] The prepared 384-well plates were transferred on dry ice to the Erasmus MC and stored at −80°C until they were screened.
Each plate also contained a growth control (60 µL of M. mycetomatis hyphal suspension, plus 0.6 µL of DMSO) and a negative control (60 µL of culture medium, plus 0.6 µL of DMSO). Plates were then incubated for 4 days at 37°C, after which 30 µL of CellTiter-Glo 3D Cell Viability reagent was added to every well.[19] After 25 min of incubation at room temperature, the luminescence was measured with a CytoFluor Series 4000 luminometer (PerSeptive Biosystems, Framingham, MA, USA). To determine the metabolic activity, the following formula was used:
Percentagemetabolicactivity=(Absorbancetestluminensence−AbsorbanceNCluminensence/AbsorbanceGCluminensence−AbsorbanceNCluminensence)×100
where, GC is growth control and NC is negative control. The luminescence measured for the GC is considered as 100% metabolic activity. The luminescence for the NC is considered as 0% metabolic activity.

[3] = tested on: M. mycetomatis strain mm55; assay: IC50 and MIC determination, CellTiter-Glo, strain mm55; assay type: cell-based, Madurella mycetomatis; conditions: for IC50: concentration inhibiting 50% of fungal hyphae growth; for MIC: concentration with complete growth inhibition
[4] = tested on: M. mycetomatis MM55-infected G. mellonella larvae; assay: Therapeutic efficacy in M. mycetomatis-infected G. mellonella larvae (survival, log-rank); assay type: in vivo, Galleria mellonella
Method: as §1
The wet weight was determined and 10 mL of PBS per gram of mycelia was added. The suspension was then sonicated for 2 min to achieve a particle size of 10 µm. The fungal suspension (4 mg/40 µL) was injected into the last left pro-leg of a healthy G. mellonella larva with an insulin 29G U-100 needle to reach a final inoculum of 4 mg/larva. Larvae were placed in Petri dishes containing Whatman paper in a 37°C incubator.
A control group was also included in which M. mycetomatis-infected larvae were treated with PBS or with 1 mg/kg amphotericin B (Fungizone, Bristol Myers Squibb, Utrecht, The Netherlands). […] The treatment was repeated at 28 h post infection and 52 h post infection via different prolegs. The infection was monitored for 10 days.
To compare the survival rates between PBS treatment control and the different experimental groups a log-rank test was performed. All data were processed and performed in GraphPad Prism 10.

[5] = tested on: M. mycetomatis-infected G. mellonella larvae; conditions: cited from earlier work
M. mycetomatis [6] = tested on: M. mycetomatis; set-up: method as in PMID 35398930, PMID 15793113, PMID 36005544, PMID 34181477, PMID 22964246; conditions: against M. mycetomatis; cited from earlier work
M. mycetomatis [7] = assay: In vitro susceptibility, averages over M. mycetomatis isolates (average metabolic activity at 2 µM, mean MIC); assay type: cell-based, Madurella mycetomatis; conditions: 2 µM; 4 days at 37°C; CellTiter-Glo; average of 3 isolates; 20% or below = inhibition
[8] = 20 µL of 20 µM injected, 10 day observation, toxic if more than 20% of larvae died
[9] = 20 µL of 10 µM at 4, 28 and 52 h post infection, 10 days
[10] = 20 µL of 20 µM at 4, 28 and 52 h post infection, 10 days
[11] = M. mycetomatis-infected G. mellonella larvae

In the case of CC(C)(C)c1cc(C=C(C#N)C#N)cc(C(C)(C)C)c1O [Tyrphostin 9], the IC50 (M. mycetomatis strain I1; Madurella mycetomatis, I1) is reported as 0.78 µM, the MIC (M. mycetomatis strain I1; Madurella mycetomatis, I1) is reported as 1 µM (≈ 0.282 µg/mL) and the IC50 (M. mycetomatis strain P1; Madurella mycetomatis, P1) is reported as 1.22 µM. For the same compound, the MIC (M. mycetomatis strain P1; Madurella mycetomatis, P1) was 2 µM (≈ 0.565 µg/mL), the “Toxicity in G. mellonella larvae at 20 µM” value (from here on “Toxicity”) [1, 8] was “toxicity was noted” and the activity at 2 µM (M. mycetomatis [2]) was 1.5%. For the same compound, the IC50 ([3]; Madurella mycetomatis) was 1.36 µM, the MIC ([3]; Madurella mycetomatis) was 2 µM (≈ 0.565 µg/mL) and the “Survival of M. mycetomatis-infected larvae versus PBS” value [4, 9] was “Decreased survival”.

For C[C@@H](c1nc(-c2ccc(C#N)cc2)cs1)[C@](O)(Cn1cncn1)c1ccc(F)cc1F [Ravuconazole], the larval survival ([5]; only at concentrations higher than used in human patients) is listed as “Prolonged survival”, the IC50 (M. mycetomatis strain I1; Madurella mycetomatis, I1) is listed as under 0.03 µM and the MIC (M. mycetomatis strain I1; Madurella mycetomatis, I1) is listed as 0.03 µM (≈ 0.0131 µg/mL). The IC50 (M. mycetomatis strain P1; Madurella mycetomatis, P1) was under 0.03 µM, the MIC (M. mycetomatis strain P1; Madurella mycetomatis, P1) was 0.06 µM (≈ 0.0262 µg/mL) and the MIC50 (M. mycetomatis [6]) was 0.016 µg/mL (≈ 0.0366 µM). For the same compound, the activity at 2 µM (M. mycetomatis [2]) was 1.3%, the IC50 ([3]; Madurella mycetomatis) was 0.17 µM and the MIC ([3]; Madurella mycetomatis) was 0.25 µM (≈ 0.109 µg/mL).

Work on Cc1ccc2c(Br)cc(Br)c(OC(=O)c3ccccc3)c2n1 [Broxaldine] yielded an IC50 (M. mycetomatis strain I1; Madurella mycetomatis, I1) of 1.31 µM, an MIC (M. mycetomatis strain I1; Madurella mycetomatis, I1) of 2 µM (≈ 0.842 µg/mL) and an IC50 (M. mycetomatis strain P1; Madurella mycetomatis, P1) of 0.63 µM. The MIC (M. mycetomatis strain P1; Madurella mycetomatis, P1) was 1 µM (≈ 0.421 µg/mL), the “Toxicity” value ([1]; in vivo) was “not toxic” and the activity at 2 µM (M. mycetomatis [2]) was 4.8%. The IC50 ([3]; Madurella mycetomatis) was 1.25 µM, the MIC ([3]; Madurella mycetomatis) was 2 µM (≈ 0.842 µg/mL) and the “Survival of M. mycetomatis-infected larvae versus PBS” value [4, 10] was “No prolonged survival”.

In the case of C/C(=N\NC(=S)N1CCC1)c1ccccn1 [nsc319726], the IC50 (M. mycetomatis strain I1; Madurella mycetomatis, I1) is reported as 1.04 µM, the MIC (M. mycetomatis strain I1; Madurella mycetomatis, I1) is reported as 2 µM (≈ 0.469 µg/mL) and the IC50 (M. mycetomatis strain P1; Madurella mycetomatis, P1) is reported as 0.74 µM. For the same compound, the MIC (M. mycetomatis strain P1; Madurella mycetomatis, P1) was 2 µM (≈ 0.469 µg/mL), the “Toxicity” value [1, 8] was “toxicity was noted” and the activity at 2 µM (M. mycetomatis [2]) was 4.1%. For the same compound, the IC50 ([3]; Madurella mycetomatis) was 1.61 µM, the MIC ([3]; Madurella mycetomatis) was 2 µM (≈ 0.469 µg/mL) and the “Survival of M. mycetomatis-infected larvae versus PBS” value [4, 9] was “No prolonged survival”.

In the case of C[C@@H]1[C@H](O)[C@@H](C)/C=C/C=C/C=C/C=C/C=C/C=C/C=C/[C@H](O[C@@H]2O[C@H](C)[C@@H](O)[C@H](N)[C@@H]2O)C[C@@H]2O[C@](O)(C[C@@H](O)C[C@@H](O)[C@H](O)CC[C@@H](O)C[C@@H](O)CC(=O)O[C@H]1C)C[C@H](O)[C@H]2C(=O)O [amphotericin B], the “Survival of M. mycetomatis-infected larvae versus PBS” value ([4]; 1 mg/kg amphotericin B, infected treated control) is reported as “prolonged the survival”.

In the case of CC(=O)N1CCN(c2ccc(OCC3COC(Cn4ccnc4)(c4ccc(Cl)cc4Cl)O3)cc2)CC1 (centres unmarked) [Ketoconazole], the larval survival [5, 11] is given as “No prolonged larval survival”, the IC50 (M. mycetomatis strain I1; Madurella mycetomatis, I1) is given as 0.05 µM and the MIC (M. mycetomatis strain I1; Madurella mycetomatis, I1) is given as 0.06 µM (≈ 0.0319 µg/mL). It also gave an IC50 (M. mycetomatis strain P1; Madurella mycetomatis, P1) of 0.17 µM, an MIC (M. mycetomatis strain P1; Madurella mycetomatis, P1) of 0.25 µM (≈ 0.133 µg/mL) and an activity at 2 µM (M. mycetomatis [2]) of 0.9%. For the same compound, the IC50 ([3]; Madurella mycetomatis) was 0.66 µM and the MIC ([3]; Madurella mycetomatis) was 1 µM (≈ 0.531 µg/mL).

In the case of C[C@@H](c1ncncc1F)[C@](O)(Cn1cncn1)c1ccc(F)cc1F [Voriconazole], the larval survival [5, 11] is listed as “No prolonged larval survival”, the IC50 (M. mycetomatis strain I1; Madurella mycetomatis, I1) is listed as 0.2 µM and the MIC (M. mycetomatis strain I1; Madurella mycetomatis, I1) is listed as 0.25 µM (≈ 0.0873 µg/mL). For the same compound, the IC50 (M. mycetomatis strain P1; Madurella mycetomatis, P1) was 0.33 µM, the MIC (M. mycetomatis strain P1; Madurella mycetomatis, P1) was 0.5 µM (≈ 0.175 µg/mL) and the MIC50 (M. mycetomatis [6]) was 0.125 µg/mL (≈ 0.358 µM). It also gave an activity at 2 µM (M. mycetomatis [2]) of 1.1%, an IC50 ([3]; Madurella mycetomatis) of 0.63 µM and an MIC ([3]; Madurella mycetomatis) of 1 µM (≈ 0.349 µg/mL).

For C[CH2][Hg][S]c1ccccc1C(=O)[O-].[Na+] [Thimerosal], the IC50 (M. mycetomatis strain I1; strain I1) was 0.04 µM, the MIC (M. mycetomatis strain I1; strain I1) was 0.06 µM and the IC50 (M. mycetomatis strain P1; strain P1) was under 0.03 µM. For the same compound, the MIC (M. mycetomatis strain P1; strain P1) was 0.03 µM, the “Average metabolic activity at 2 µM (%)” value (M. mycetomatis [7]) was 1.4% and the “Toxicity” value [1, 8] was “toxicity was noted”. For the same compound, the IC50 [3] was 0.08 µM, the MIC [3] was 0.25 µM and the “Survival of M. mycetomatis-infected larvae versus PBS” value [4, 9] was “No prolonged survival”. The “log-rank P versus PBS treatment” value [4, 9] was 0.5242.

With Clc1ccc(COC(Cn2ccnc2)c2ccc(Cl)cc2Cl)c(Cl)c1 (centres unmarked) [Miconazole nitrate] the MIC (M. mycetomatis strain I1; Madurella mycetomatis, I1) was 0.06 µM, the MIC (M. mycetomatis strain P1; Madurella mycetomatis, P1) was 0.5 µM and the activity at 2 µM (M. mycetomatis [2]) was 1%. For the same compound, the MIC ([3]; Madurella mycetomatis) was 1 µM.

In the case of Oc1c(Br)cc(Br)c2cccnc12 [Broxyquinoline], the IC50 (M. mycetomatis strain I1; Madurella mycetomatis, I1) is reported as 1.29 µM, the MIC (M. mycetomatis strain I1; Madurella mycetomatis, I1) is reported as 2 µM (≈ 0.606 µg/mL) and the IC50 (M. mycetomatis strain P1; Madurella mycetomatis, P1) is reported as 0.56 µM. The MIC (M. mycetomatis strain P1; Madurella mycetomatis, P1) was 2 µM (≈ 0.606 µg/mL), the “Toxicity” value ([1]; in vivo) was “not toxic” and the activity at 2 µM (M. mycetomatis [2]) was 3.3%. The IC50 ([3]; Madurella mycetomatis) was 1.6 µM, the MIC ([3]; Madurella mycetomatis) was 2 µM (≈ 0.606 µg/mL) and the “Survival of M. mycetomatis-infected larvae versus PBS” value [4, 10] was “No prolonged survival”.

From paper PMC12670160, “A drug-repurposing screen of FDA- and EMA-approved drugs identifies two NF-κB inhibitors active against eumycetoma” (Journal of Antimicrobial Chemotherapy, 2025)
